Assay results as given in PubChem BioAssay (NCI).
Values joined by “and” are separate entries in the source; they are usually repeats but may differ in a detail not shown here. Equal values may be shown once.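 Test compounds were applied to cells in 96-well plates for 48 hours at 5 doses. At the GI50, growth is halved. At the TGI there is no net growth.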

Columns and labels:
Experiment in all cases: DTP human tumour cell line panel, 48 h
ACHN renal = tested on: ACHN renal
CAKI-1 renal = tested on: CAKI-1 renal
HOP-92 NSCLC = tested on: HOP-92 NSCLC
IGROV1 ovarian = tested on: IGROV1 ovarian
OVCAR-3 ovarian = tested on: OVCAR-3 ovarian
RPMI-8226 leukemia = tested on: RPMI-8226 leukemia
SK-MEL-5 melanoma = tested on: SK-MEL-5 melanoma
SN12C renal = tested on: SN12C renal
SNB-19 CNS = tested on: SNB-19 CNS
SR leukemia = tested on: SR leukemia

| Structure (SMILES) | GI50 (ACHN renal) | TGI (ACHN renal) | GI50 (CAKI-1 renal) | TGI (CAKI-1 renal) | TGI (HOP-92 NSCLC) | GI50 (IGROV1 ovarian) | TGI (IGROV1 ovarian) | GI50 (OVCAR-3 ovarian) | TGI (OVCAR-3 ovarian) | GI50 (RPMI-8226 leukemia) | TGI (RPMI-8226 leukemia) | GI50 (SK-MEL-5 melanoma) | TGI (SK-MEL-5 melanoma) | GI50 (SN12C renal) | TGI (SN12C renal) | GI50 (SNB-19 CNS) | TGI (SNB-19 CNS) | GI50 (SR leukemia) | TGI (SR leukemia) | GI50 (HOP-92 NSCLC) |
| --- | --- | --- | --- | --- | --- | --- | --- | --- | --- | --- | --- | --- | --- | --- | --- | --- | --- | --- | --- | --- |
| COC(=O)[C@H]1C(=O)[C@@]2(C)[C@H]([C@H](OC(=O)c3ccccc3)[C@]3(O)C[C@H](OC(=O)[C@H](O)[C@@H](NC(=O)c4ccc(F)cc4)c4ccccc4)C(C)=C1C3(C)C)[C@]1(OC(C)=O)CO[C@@H]1C[C@@H]2O | 1.6 µM | > 25 µM | 0.12 µM | > 16.3 µM | > 14.5 µM | 0.00478 µM | > 7.29 µM | 0.00722 µM | 0.0222 µM | 0.00484 µM | 0.271 µM | 0.0104 µM | > 9.79 µM | 0.0104 µM | > 25 µM | 0.0166 µM | > 25 µM | 0.00428 µM | 1.69 µM |  |
| CN1CCC(CNc2ccc3ncc(-c4cccc(OC(F)(F)F)c4)n3n2)CC1 | 2.14 µM and 3.05 µM | 6.05 µM and > 10 µM | 1.47 µM and 1.83 µM | 3.57 µM and > 10 µM | 3.81 µM and 3.66 µM | 2.91 µM and 2.27 µM | 9.09 µM and 9.11 µM | 1.7 µM and 2.15 µM | 3.79 µM and > 10 µM | 2.41 µM and 1.91 µM | 7.18 µM and 5.36 µM | 1.47 µM and 1.51 µM | 2.82 µM and 2.85 µM | 2.14 µM and 2.3 µM | 7.14 µM and > 10 µM | 4.06 µM and 2.95 µM | 16.5 µM and > 10 µM | 1.9 µM and 1.7 µM | 5.24 µM and 4.46 µM | 1.2 µM and 0.383 µM |
| COc1cccc(Cn2c(-c3nonc3N)nc3ccccc32)c1 | 0.612 µM | > 100 µM | 0.404 µM | > 100 µM | 16.4 µM | 0.624 µM | > 75.6 µM | 0.354 µM | 3.62 µM | 0.377 µM | > 100 µM | 0.375 µM | > 70.5 µM | 0.751 µM | > 100 µM | 0.907 µM | > 100 µM | 0.31 µM | > 100 µM | 0.344 µM |
| C=CC(=O)N1C/C(=C\c2ccccc2)C(=O)/C(=C/c2ccccc2)C1 |  | 4.53 µM |  | 6.88 µM | 8.64 µM |  | 4.2 µM |  | 4.47 µM | 0.17 µM | 0.871 µM and 1.08 µM |  | 3.12 µM |  | 3.44 µM |  | 7.12 µM | 0.566 µM | 0.935 µM and 5.24 µM |  |
| Cc1ccc2[nH]c3c(C)c4c(c(C)c3c2c1)CN(C)C=C4 |  | 20.5 µM | 1.21 µM | 5.89 µM | 4.74 µM |  | 7.38 µM |  | 14.8 µM |  | 35.5 µM |  | 2.94 µM |  | 0.682 µM |  | 1.99 µM |  | > 36.8 µM |  |
| NC(=O)/C(=C\c1ccncc1)c1cccc2ccccc12 |  | > 100 µM |  | > 100 µM | > 100 µM |  | > 100 µM |  | > 100 µM |  | > 100 µM |  | > 100 µM |  | > 100 µM |  | > 100 µM |  | > 100 µM |  |
| CN(C)CCCNC(=O)c1ccc2oc3cc4ccccc4c(=O)n3c2c1 | 11.8 µM | > 50 µM | 8.31 µM | 36.5 µM | > 50 µM | 18.4 µM | > 50 µM | 8.7 µM | > 50 µM | > 50 µM | > 50 µM | 11.2 µM | 28.8 µM | 45.6 µM | > 50 µM | > 50 µM | > 50 µM | 30.8 µM | > 50 µM | > 50 µM |
| CCOC(=O)C[C@@H](C)[C@]1(C(=O)OC)CCCC1=O |  | > 100 µM |  | > 100 µM | > 100 µM |  | > 100 µM |  | > 100 µM |  | > 71.4 µM |  | > 100 µM |  | > 100 µM |  | > 100 µM |  | 65.6 µM |  |
| C=C(C)[C@@H]1CC[C@]2(C(N)=O)CC[C@]3(C)[C@H](CC[C@@H]4[C@@]5(C)CC[C@H](O)C(C)(C)[C@@H]5CC[C@]43C)[C@@H]12 | 2.44 µM | 6.82 µM | 1.98 µM | 4.98 µM | 8.86 µM | 3.32 µM | 14.5 µM | 2.07 µM | 4.18 µM | 3.53 µM | 24.9 µM | 5.22 µM | 19.2 µM | 3 µM | 10.6 µM | 4.57 µM | 34.3 µM | 4.14 µM | 23.5 µM | 2.69 µM |
| CCNCCC1(CC)C(=O)NC(=O)NC1=O |  | > 100 µM |  | > 100 µM | > 100 µM |  | > 100 µM |  | > 100 µM |  | > 100 µM |  | > 100 µM |  | > 100 µM |  | > 100 µM |  | > 100 µM |  |
| CCCCCCCCCCCCCCCCOCC(CN(C)CCN(C)C)OCCCCCCCCCCCCCCCC (configuration not stated) |  | > 100 µM |  | > 100 µM | > 100 µM |  | > 100 µM |  | > 100 µM |  | > 100 µM |  | > 100 µM |  | > 100 µM |  | > 100 µM |  | > 100 µM |  |
| COc1c2ccoc2cc2oc(=O)ccc12 |  | > 100 µM |  | > 100 µM | > 100 µM |  | > 100 µM |  | > 100 µM |  | > 100 µM |  | > 100 µM |  | > 100 µM |  | > 100 µM |  | > 100 µM |  |
| Nc1nc(Cl)cc(NCCCCCNc2cc(Cl)nc(N)n2)n1 |  | 52.2 µM |  | > 100 µM | > 100 µM |  | > 100 µM |  | > 100 µM |  | > 100 µM |  | > 100 µM |  | > 100 µM |  | > 100 µM |  | > 100 µM |  |
| O=c1[nH]cc(/C=N\Nc2ccccc2)c(=O)[nH]1 |  | > 100 µM |  | > 100 µM | > 100 µM |  | > 100 µM |  | > 100 µM |  | > 100 µM |  | > 100 µM |  | > 100 µM |  | > 100 µM |  | > 100 µM |  |
